Results on 13 molecules are retold here after PubChem BioAssay AID222 (DTP/NCI, 2004).

The assay concerns C57BL/6 mice, intracerebral ependymoblastoma, median survival T/C. The assay is described as follows: NCI In Vivo Anticancer Drug Screen. Data for tumor model Ependymoblastoma (intracerebral) in C57BL/6 mice. To be noted: endpoint: median survival time, higher = longer survival. Here is the method:
The antitumor activity of compounds was measured in mice bearing transplantable tumors. Survival or tumor size were measured and the results are expressed as the measurement made in the treated group (T) divided by the measurement made in the vehicle treated control group (C). The tumor model used in this assay is Ependymoblastoma (intracerebral) in C57BL/6 mice

Where [1] appears, read: dose: 0.75 mg/kg/injection, schedule: Q01DX009 (ip), vehicle: Klucel (hydroxypropylcellulose) (HPC).
Where [2] appears, read: dose: 1.5 mg/kg/injection, schedule: Q01DX009 (ip), vehicle: Klucel (hydroxypropylcellulose) (HPC).
Setting [3] is: dose: 3.0 mg/kg/injection, schedule: Q01DX009 (ip), vehicle: Klucel (hydroxypropylcellulose) (HPC).
Where [4] appears, read: dose: 6.25 mg/kg/injection, schedule: Q01DX005 (ip), vehicle: Klucel (hydroxypropylcellulose) (HPC).
The mark [5] stands for this setting: dose: 8.0 mg/kg/injection, schedule: Q01DX005 (ip), vehicle: Klucel (hydroxypropylcellulose) (HPC).
Setting [6] is: dose: 12.5 mg/kg/injection, schedule: Q01DX005 (ip), vehicle: Klucel (hydroxypropylcellulose) (HPC).
Setting [7] is: dose: 16.0 mg/kg/injection, schedule: Q01DX005 (ip), vehicle: Klucel (hydroxypropylcellulose) (HPC).
[8] abbreviates: dose: 32.0 mg/kg/injection, schedule: Q01DX005 (ip), vehicle: saline.
Setting [9] is: dose: 8.0 mg/kg/injection, schedule: Q01DX005 (ip), vehicle: saline with Tween-80.
Where [10] appears, read: dose: 16.0 mg/kg/injection, schedule: Q01DX005 (ip), vehicle: saline with Tween-80.
[11] abbreviates: dose: 32.0 mg/kg/injection, schedule: Q01DX005 (ip), vehicle: saline with Tween-80.
Where [12] appears, read: dose: 4.0 mg/kg/injection, schedule: Q01DX005 (ip), vehicle: saline with Tween-80.

Values joined by “and” are separate entries in the source; they are usually repeats but may differ in a detail not shown here. Equal entries are not always repeated. Inconclusive results and toxic doses are left out.

Consider `O=C1NC2(CCCCC2)C(=O)N1CCN(CCCl)CCCl`, for which the T/C by setting is: under setting [1], 101 % of control; (dose: 1.0 mg/kg/injection, schedule: Q01DX005 (ip), vehicle: Klucel (hydroxypropylcellulose) (HPC)) 101 % of control; (dose: 1.0 mg/kg/injection, schedule: Q01DX005 (ip), vehicle: saline) 105 % of control; under setting [2], 100 % of control; (dose: 2.0 mg/kg/injection, schedule: Q01DX005 (ip), vehicle: Klucel (hydroxypropylcellulose) (HPC)) 105 % of control; (dose: 2.0 mg/kg/injection, schedule: Q01DX005 (ip), vehicle: saline) 93 % of control and 108 % of control. Further, the T/C reads like this: under setting [3], 106 % of control; (dose: 4.0 mg/kg/injection, schedule: Q01DX005 (ip), vehicle: Klucel (hydroxypropylcellulose) (HPC)) 102 % of control; under setting [4], 119 % of control; under setting [5], 94 % of control and 107 % of control; under setting [6], 114 % of control; under setting [7], 97 % of control. Besides, under setting [8], the T/C was 111 % of control.
As for `CN(C)CC(=O)c1ccc(O)c(O)c1`, the T/C is, setting by setting: (dose: 100.0 mg/kg/injection, schedule: Q01DX005 (ip), vehicle: saline) 101 % of control; (dose: 200.0 mg/kg/injection, schedule: Q01DX005 (ip), vehicle: saline) 99 % of control; (dose: 400.0 mg/kg/injection, schedule: Q01DX005 (ip), vehicle: saline) 108 % of control.
As for `O=C1NC(=O)C2(CCc3ccc(N(CCCl)CCCl)cc32)N1` (stereo not drawn), the T/C is 93 % of control under setting [1]; 101 % of control under setting [2]; 115 % of control under setting [3]; 98 % of control (dose: 6.0 mg/kg/injection, schedule: Q01DX009 (ip), vehicle: Klucel (hydroxypropylcellulose) (HPC)); 114 % of control under setting [4]; 91 % of control (dose: 12.0 mg/kg/injection, schedule: Q01DX009 (ip), vehicle: Klucel (hydroxypropylcellulose) (HPC)). The T/C runs as follows: under setting [6], 115 % of control; (dose: 25.0 mg/kg/injection, schedule: Q01DX005 (ip), vehicle: Klucel (hydroxypropylcellulose) (HPC)) 102 % of control.
`CC[C@]12CN3CCc4c([nH]c5ccccc45)[C@@](C(=O)OC)(c4cc5c(cc4OC)N(C)[C@H]4[C@@](O)(C(=O)OC)[C@H](OC(C)=O)[C@]6(CC)C=CCN7CC[C@]54[C@@H]76)CC(C3)[C@H]1O2` (stereo partly drawn): the T/C is, setting by setting: (dose: 0.05 mg/kg/injection, schedule: Q01DX005 (ip), vehicle: saline) 94 % of control; (dose: 0.1 mg/kg/injection, schedule: Q01DX005 (ip), vehicle: saline) 93 % of control; (dose: 0.2 mg/kg/injection, schedule: Q01DX005 (ip), vehicle: saline) 93 % of control; (dose: 0.4 mg/kg/injection, schedule: Q01DX005 (ip), vehicle: saline) 108 % of control; (dose: 0.8 mg/kg/injection, schedule: Q01DX005 (ip), vehicle: saline) 103 % of control; (dose: 1.6 mg/kg/injection, schedule: Q01DX005 (ip), vehicle: saline) 103 % of control. Also, the T/C is, setting by setting: (dose: 3.2 mg/kg/injection, schedule: Q01DX005 (ip), vehicle: saline) 113 % of control; (dose: 6.4 mg/kg/injection, schedule: Q01DX005 (ip), vehicle: saline) 103 % of control; (dose: 12.8 mg/kg/injection, schedule: Q01DX005 (ip), vehicle: saline) 103 % of control.
As for `O=C(NP(=O)(N1CC1)N1CC1)c1cc(I)ccc1I`, the T/C reads like this: under setting [5], 106 % of control; under setting [9], 91 % of control and 104 % of control; (dose: 8.0 mg/kg/injection, schedule: Q01DX005 (ip), vehicle: saline) 102 % of control and 107 % of control; under setting [7], 113 % of control; under setting [10], 101 % of control and 106 % of control; (dose: 16.0 mg/kg/injection, schedule: Q01DX005 (ip), vehicle: saline) 102 % of control and 119 % of control. The T/C is 120 % of control (dose: 32.0 mg/kg/injection, schedule: Q01DX005 (ip), vehicle: Klucel (hydroxypropylcellulose) (HPC)); 101 % of control under setting [11]; 113 % of control under setting [8]; 119 % of control and 124 % of control (dose: 64.0 mg/kg/injection, schedule: Q01DX005 (ip), vehicle: saline).
For `CC(=O)Nc1ccc(/C=N/NC(N)=S)cc1`, the T/C (dose: 45.0 mg/kg/injection, schedule: Q01DX005 (ip), vehicle: saline with Tween-80) is 98 % of control; the T/C (dose: 90.0 mg/kg/injection, schedule: Q01DX005 (ip), vehicle: saline with Tween-80) is 93 % of control and 102 % of control; the T/C (dose: 180.0 mg/kg/injection, schedule: Q01DX005 (ip), vehicle: saline with Tween-80) is 92 % of control and 104 % of control; the T/C (dose: 360.0 mg/kg/injection, schedule: Q01DX005 (ip), vehicle: saline with Tween-80) was 96 % of control and 98 % of control; the T/C (dose: 720.0 mg/kg/injection, schedule: Q01DX005 (ip), vehicle: saline with Tween-80) was 105 % of control and 110 % of control.
As to `CCOC(=O)C(C)(C)Oc1ccc(Cl)cc1`, the T/C reads like this: (dose: 100.0 mg/kg/injection, schedule: Q01DX005 (ip), vehicle: saline with Tween-80) 96 % of control; (dose: 200.0 mg/kg/injection, schedule: Q01DX005 (ip), vehicle: saline with Tween-80) 93 % of control.
Consider `O=C1c2c(O)ccc(O)c2C(=O)c2c(NCCNCCO)ccc(NCCNCCO)c21`, for which the T/C was 102 % of control (dose: 1.0 mg/kg/injection, schedule: Q01DX005 (ip), vehicle: saline with Tween-80); 96 % of control (dose: 2.0 mg/kg/injection, schedule: Q01DX005 (ip), vehicle: saline with Tween-80); 106 % of control under setting [12].
For the molecule `CN(N=O)C(N)=O`, the T/C is, setting by setting: (dose: 2.5 mg/kg/injection, schedule: Q01DX001 (ip), vehicle: Klucel (hydroxypropylcellulose) (HPC)) 120 % of control; (dose: 5.0 mg/kg/injection, schedule: Q01DX001 (ip), vehicle: Klucel (hydroxypropylcellulose) (HPC)) 124 % of control; (dose: 80.0 mg/kg/injection, schedule: Q01DX001 (ip), vehicle: Klucel (hydroxypropylcellulose) (HPC)) 97 % of control.
As for `N=C(N)SCc1c2ccccc2c(CSC(=N)N)c2ccccc12`, the T/C (dose: 2.5 mg/kg/injection, schedule: Q01DX005 (ip), vehicle: Klucel (hydroxypropylcellulose) (HPC)) was 99 % of control; the T/C (dose: 5.0 mg/kg/injection, schedule: Q01DX005 (ip), vehicle: Klucel (hydroxypropylcellulose) (HPC)) was 100 % of control; the T/C (dose: 10.0 mg/kg/injection, schedule: Q01DX005 (ip), vehicle: Klucel (hydroxypropylcellulose) (HPC)) was 90 % of control; the T/C (dose: 20.0 mg/kg/injection, schedule: Q01DX005 (ip), vehicle: Klucel (hydroxypropylcellulose) (HPC)) is 102 % of control.
As to `NC(=O)N(CCCl)N=O`, the T/C reads like this: (dose: 0.5 mg/kg/injection, schedule: Q01DX005 (ip), vehicle: saline + alcohol) 118 % of control; (dose: 2.0 mg/kg/injection, schedule: Q01DX005 (ip), vehicle: saline + alcohol) 276 % of control.
Turning to `c1ccc([C@H]2CN3CCSC3=N2)cc1`, the T/C reads like this: (dose: 5.0 mg/kg/injection, schedule: Q01DX005 (ip), vehicle: saline) 103 % of control; (dose: 5.0 mg/kg/injection, schedule: Q01DX009 (ip), vehicle: saline) 99 % of control; (dose: 10.0 mg/kg/injection, schedule: Q01DX005 (ip), vehicle: saline) 96 % of control; (dose: 10.0 mg/kg/injection, schedule: Q01DX009 (ip), vehicle: saline) 113 % of control; (dose: 20.0 mg/kg/injection, schedule: Q01DX005 (ip), vehicle: saline) 101 % of control; (dose: 20.0 mg/kg/injection, schedule: Q01DX009 (ip), vehicle: saline) 107 % of control. In addition, the T/C (dose: 40.0 mg/kg/injection, schedule: Q01DX005 (ip), vehicle: saline) is 101 % of control.
In the case of `COc1ccc2c(c1O)-c1cc(O)cc3c1C(C2)N(CCCl)CC3` (stereo not drawn), the T/C was 95 % of control and 98 % of control under setting [12]; 98 % of control under setting [9]; 94 % of control and 100 % of control under setting [10]; 110 % of control under setting [11].
